Source: the kinase profiling compilation of Christmann-Franck et al. (2016)

What was measured:
TAOK2 (human) = TAOK2 (human) (UniProt Q9UL54)
CDK13 (human) = CDK13 (human) (UniProt Q14004)
STRADA (human) = STRADA (human) (UniProt Q7RTN6)
PAK4 (human) = PAK4 (human) (UniProt O96013)
SGK223 (human) = SGK223 (human) (UniProt Q86YV5)
PRKAA1 (human) = PRKAA1 (human) (UniProt Q13131)
TGFBR2 (human) = TGFBR2 (human) (UniProt P37173)
MAP3K2 (human) = MAP3K2 (human) (UniProt Q9Y2U5)
PDPK1 (human) = PDPK1 (human) (UniProt O15530)
MAP4K2 (human) = MAP4K2 (human) (UniProt Q12851)
WEE1 (human) = WEE1 (human) (UniProt P30291)
Sequence of WEE1 (human) (P30291 whole entry, looked up): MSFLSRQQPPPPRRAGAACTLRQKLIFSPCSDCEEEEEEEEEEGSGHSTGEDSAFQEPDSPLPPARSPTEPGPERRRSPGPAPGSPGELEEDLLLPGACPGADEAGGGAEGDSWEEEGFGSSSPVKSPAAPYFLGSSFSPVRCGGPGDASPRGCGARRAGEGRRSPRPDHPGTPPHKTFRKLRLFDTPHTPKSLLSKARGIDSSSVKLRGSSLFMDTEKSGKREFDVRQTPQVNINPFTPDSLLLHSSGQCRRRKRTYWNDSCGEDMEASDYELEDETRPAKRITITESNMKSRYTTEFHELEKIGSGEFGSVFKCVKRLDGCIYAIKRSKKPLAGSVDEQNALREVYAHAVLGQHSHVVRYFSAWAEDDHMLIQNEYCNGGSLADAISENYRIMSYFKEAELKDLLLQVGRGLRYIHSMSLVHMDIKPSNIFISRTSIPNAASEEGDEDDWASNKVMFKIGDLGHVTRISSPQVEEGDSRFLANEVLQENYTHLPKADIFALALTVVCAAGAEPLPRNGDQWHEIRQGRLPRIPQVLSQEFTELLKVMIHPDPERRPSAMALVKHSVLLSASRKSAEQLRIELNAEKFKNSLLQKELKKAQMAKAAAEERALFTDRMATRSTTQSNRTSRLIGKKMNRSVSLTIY

PRKACB (human) = PRKACB (human) (UniProt P22694)
MAP2K6 (human) = MAP2K6 (human) (UniProt P52564)
Sequence of MAP2K6 (human) (P52564 whole entry, looked up): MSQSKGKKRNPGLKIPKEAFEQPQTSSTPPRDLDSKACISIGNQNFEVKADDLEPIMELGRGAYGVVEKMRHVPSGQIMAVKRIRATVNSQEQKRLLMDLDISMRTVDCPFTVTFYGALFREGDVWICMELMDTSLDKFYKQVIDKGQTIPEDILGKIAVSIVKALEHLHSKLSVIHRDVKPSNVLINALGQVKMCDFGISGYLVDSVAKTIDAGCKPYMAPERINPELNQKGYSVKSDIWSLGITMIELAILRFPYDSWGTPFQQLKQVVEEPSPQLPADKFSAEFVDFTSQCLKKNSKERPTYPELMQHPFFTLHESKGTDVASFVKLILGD

MAPK8 (human) = MAPK8 (human) (UniProt P45983)
IRAK3 (human) = IRAK3 (human) (UniProt Q9Y616)
NEK9 (human) = NEK9 (human) (UniProt Q8TD19)
MAP4K5 (human) = MAP4K5 (human) (UniProt Q9Y4K4)
MAPK14 (human) = MAPK14 (human) (UniProt Q16539)
MAP3K1 (human) = MAP3K1 (human) (UniProt Q13233)
MAP4K1 (human) = MAP4K1 (human) (UniProt Q92918)
MAP2K1 (human) = MAP2K1 (human) (UniProt Q02750)
CSNK1A1 (human) = CSNK1A1 (human) (UniProt P48729)
GAK (human) = GAK (human) (UniProt O14976)
Sequence of GAK (human) (O14976 whole entry, looked up): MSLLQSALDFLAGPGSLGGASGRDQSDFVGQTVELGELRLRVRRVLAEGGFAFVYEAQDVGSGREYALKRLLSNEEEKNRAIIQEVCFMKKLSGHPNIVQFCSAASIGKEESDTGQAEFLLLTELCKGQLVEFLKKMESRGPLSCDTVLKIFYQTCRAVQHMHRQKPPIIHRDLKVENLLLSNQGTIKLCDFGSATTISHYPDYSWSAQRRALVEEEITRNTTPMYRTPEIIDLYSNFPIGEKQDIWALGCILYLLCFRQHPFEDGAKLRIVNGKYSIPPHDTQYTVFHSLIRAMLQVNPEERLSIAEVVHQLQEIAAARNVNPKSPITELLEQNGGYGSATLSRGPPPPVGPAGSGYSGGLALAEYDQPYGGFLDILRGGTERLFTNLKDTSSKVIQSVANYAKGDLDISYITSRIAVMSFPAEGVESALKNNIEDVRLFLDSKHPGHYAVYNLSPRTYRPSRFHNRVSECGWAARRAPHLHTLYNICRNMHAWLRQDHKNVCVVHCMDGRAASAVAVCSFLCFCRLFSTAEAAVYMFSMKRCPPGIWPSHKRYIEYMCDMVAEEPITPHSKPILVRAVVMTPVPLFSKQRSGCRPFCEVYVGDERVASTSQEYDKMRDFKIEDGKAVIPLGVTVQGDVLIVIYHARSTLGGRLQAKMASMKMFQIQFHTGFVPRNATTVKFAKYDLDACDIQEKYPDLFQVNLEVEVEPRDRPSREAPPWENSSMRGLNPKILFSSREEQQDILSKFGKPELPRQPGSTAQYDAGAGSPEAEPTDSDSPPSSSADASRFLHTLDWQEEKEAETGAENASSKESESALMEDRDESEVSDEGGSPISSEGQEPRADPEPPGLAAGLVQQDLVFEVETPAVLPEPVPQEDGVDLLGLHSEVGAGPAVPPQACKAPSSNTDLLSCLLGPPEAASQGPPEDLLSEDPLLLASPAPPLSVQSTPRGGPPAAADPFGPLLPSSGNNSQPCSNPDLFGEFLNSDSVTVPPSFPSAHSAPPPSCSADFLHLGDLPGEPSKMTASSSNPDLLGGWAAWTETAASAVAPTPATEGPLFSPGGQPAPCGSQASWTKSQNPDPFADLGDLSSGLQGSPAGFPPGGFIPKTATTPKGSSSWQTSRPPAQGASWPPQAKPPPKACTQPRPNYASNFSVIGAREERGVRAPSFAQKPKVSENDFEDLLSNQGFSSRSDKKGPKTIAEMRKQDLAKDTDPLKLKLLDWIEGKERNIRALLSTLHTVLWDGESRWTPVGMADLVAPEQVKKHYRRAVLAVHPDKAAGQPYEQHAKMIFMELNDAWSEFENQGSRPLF

RPS6KA1 KD1 KD2 (human) = RPS6KA1 KD1 KD2 (human) (UniProt Q15418)
FYN (human) = FYN (human) (UniProt P06241)
CSK (human) = CSK (human) (UniProt P41240)
STK17B (human) = STK17B (human) (UniProt O94768)
BMP2K (human) = BMP2K (human) (UniProt Q9NSY1)
FER (human) = FER (human) (UniProt P16591)
SIK3 (human) = SIK3 (human) (UniProt Q9Y2K2)
Sequence of SIK3 (human) (Q9Y2K2 whole entry, looked up): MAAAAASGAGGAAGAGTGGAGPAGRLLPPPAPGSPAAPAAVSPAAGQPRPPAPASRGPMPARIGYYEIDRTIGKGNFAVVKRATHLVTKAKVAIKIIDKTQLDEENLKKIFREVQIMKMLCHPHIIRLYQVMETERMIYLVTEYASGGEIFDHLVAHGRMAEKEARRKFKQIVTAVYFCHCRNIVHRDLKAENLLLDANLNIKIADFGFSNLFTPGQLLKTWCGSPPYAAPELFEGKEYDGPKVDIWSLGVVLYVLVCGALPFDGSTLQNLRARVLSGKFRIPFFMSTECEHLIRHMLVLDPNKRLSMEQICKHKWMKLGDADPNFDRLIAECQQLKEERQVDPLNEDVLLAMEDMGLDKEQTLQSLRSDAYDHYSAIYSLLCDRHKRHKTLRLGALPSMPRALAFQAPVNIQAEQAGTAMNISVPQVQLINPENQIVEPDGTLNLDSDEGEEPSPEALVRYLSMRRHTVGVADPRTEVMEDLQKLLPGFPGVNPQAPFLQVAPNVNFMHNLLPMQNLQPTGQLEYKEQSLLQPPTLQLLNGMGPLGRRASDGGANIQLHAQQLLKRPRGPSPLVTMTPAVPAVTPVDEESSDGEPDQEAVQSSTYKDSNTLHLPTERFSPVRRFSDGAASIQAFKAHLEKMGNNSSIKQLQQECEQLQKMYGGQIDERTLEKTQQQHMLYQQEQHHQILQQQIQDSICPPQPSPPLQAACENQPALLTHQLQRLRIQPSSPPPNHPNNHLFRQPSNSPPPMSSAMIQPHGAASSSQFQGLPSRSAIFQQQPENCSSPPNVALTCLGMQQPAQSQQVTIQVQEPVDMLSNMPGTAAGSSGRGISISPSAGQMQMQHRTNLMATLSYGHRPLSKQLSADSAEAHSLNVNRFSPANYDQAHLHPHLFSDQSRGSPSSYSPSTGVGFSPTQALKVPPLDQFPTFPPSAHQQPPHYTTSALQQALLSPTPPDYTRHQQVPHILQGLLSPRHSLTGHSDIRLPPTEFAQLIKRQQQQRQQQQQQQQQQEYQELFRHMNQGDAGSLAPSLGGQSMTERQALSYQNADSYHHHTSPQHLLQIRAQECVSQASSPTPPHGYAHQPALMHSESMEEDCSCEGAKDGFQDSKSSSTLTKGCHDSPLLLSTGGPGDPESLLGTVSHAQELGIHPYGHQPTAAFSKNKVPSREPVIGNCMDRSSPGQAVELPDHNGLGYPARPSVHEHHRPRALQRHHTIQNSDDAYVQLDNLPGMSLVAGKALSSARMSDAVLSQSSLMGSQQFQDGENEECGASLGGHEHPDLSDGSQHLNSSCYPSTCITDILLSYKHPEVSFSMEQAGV

CSNK1G3 (human) = CSNK1G3 (human) (UniProt Q9Y6M4)
MAP2K5 (human) = MAP2K5 (human) (UniProt Q13163)
FGR (human) = FGR (human) (UniProt P09769)
SYK (human) = SYK (human) (UniProt P43405)
EIF2AK4 KD1 KD2 (human) = EIF2AK4 KD1 KD2 (human) (UniProt Q9P2K8)
SRC (human) = SRC (human) (UniProt P12931)
RPS6KA3 KD1 KD2 (human) = RPS6KA3 KD1 KD2 (human) (UniProt P51812)
YES1 (human) = YES1 (human) (UniProt P07947)
ADCK3 (human) = ADCK3 (human) (UniProt Q8NI60)
Sequence of ADCK3 (human) (Q8NI60 whole entry, looked up): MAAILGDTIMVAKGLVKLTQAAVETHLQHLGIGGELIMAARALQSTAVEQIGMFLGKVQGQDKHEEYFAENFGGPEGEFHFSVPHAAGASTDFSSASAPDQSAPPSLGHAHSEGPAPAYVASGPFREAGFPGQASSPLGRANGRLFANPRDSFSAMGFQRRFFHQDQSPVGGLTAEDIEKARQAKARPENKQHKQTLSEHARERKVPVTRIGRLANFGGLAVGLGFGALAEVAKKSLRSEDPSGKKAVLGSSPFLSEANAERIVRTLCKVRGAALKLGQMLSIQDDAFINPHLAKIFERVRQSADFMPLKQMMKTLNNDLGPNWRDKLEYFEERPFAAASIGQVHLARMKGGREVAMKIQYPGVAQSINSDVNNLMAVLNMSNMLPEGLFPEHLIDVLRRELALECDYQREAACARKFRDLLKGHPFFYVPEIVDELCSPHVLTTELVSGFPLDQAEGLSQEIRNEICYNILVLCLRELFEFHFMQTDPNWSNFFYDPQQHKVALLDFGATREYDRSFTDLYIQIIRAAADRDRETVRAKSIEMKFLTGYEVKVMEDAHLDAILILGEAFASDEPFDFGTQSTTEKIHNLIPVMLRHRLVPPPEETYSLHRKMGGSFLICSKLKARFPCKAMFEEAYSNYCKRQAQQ

ULK3 (human) = ULK3 (human) (UniProt Q6PHR2)
STK10 (human) = STK10 (human) (UniProt O94804)
PRKDC (human) = PRKDC (human) (UniProt P78527)
PRKCD (human) = PRKCD (human) (UniProt Q05655)
MARK3 (human) = MARK3 (human) (UniProt P27448)

Sequence of PRKAA1 (human) (Q13131 whole entry, looked up): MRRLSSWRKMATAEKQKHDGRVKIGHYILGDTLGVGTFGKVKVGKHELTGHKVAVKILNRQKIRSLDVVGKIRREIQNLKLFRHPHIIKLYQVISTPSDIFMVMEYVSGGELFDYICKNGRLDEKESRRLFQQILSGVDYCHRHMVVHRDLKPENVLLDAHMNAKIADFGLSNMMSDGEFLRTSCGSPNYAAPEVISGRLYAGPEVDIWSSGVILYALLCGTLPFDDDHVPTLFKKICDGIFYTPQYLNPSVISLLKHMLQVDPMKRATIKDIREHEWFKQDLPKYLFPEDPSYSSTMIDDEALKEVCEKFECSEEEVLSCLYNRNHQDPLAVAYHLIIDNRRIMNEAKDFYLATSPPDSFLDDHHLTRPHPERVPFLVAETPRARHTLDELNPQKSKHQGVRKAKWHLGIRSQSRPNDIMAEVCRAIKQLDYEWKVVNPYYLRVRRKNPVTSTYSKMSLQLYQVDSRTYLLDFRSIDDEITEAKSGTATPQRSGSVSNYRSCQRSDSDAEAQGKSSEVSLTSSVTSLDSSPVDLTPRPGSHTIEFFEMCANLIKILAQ

- IC50 (TAOK2 (human)): 8.47 µM
- IC50 (CDK13 (human)): 4.4 µM
- IC50 (STRADA (human)): > 10 µM
- IC50 (PAK4 (human)): > 10 µM
- IC50 (SGK223 (human)): > 10 µM
- IC50 (PRKAA1 (human)): > 10 µM
- IC50 (TGFBR2 (human)): > 10 µM
- IC50 (MAP3K2 (human)): > 10 µM
- IC50 (PDPK1 (human)): > 10 µM
- IC50 (MAP4K2 (human)): > 10 µM
- IC50 (WEE1 (human)): > 10 µM
- IC50 (PRKACB (human)): > 10 µM
- IC50 (MAP2K6 (human)): > 10 µM
- IC50 (MAPK8 (human)): > 10 µM
- IC50 (IRAK3 (human)): > 10 µM
- IC50 (MAP4K5 (human)): > 10 µM
- IC50 (MAPK14 (human)): > 10 µM
- IC50 (MAP3K1 (human)): > 10 µM
- IC50 (MAP4K1 (human)): > 10 µM
- IC50 (MAP2K1 (human)): > 10 µM
- IC50 (CSNK1A1 (human)): 8.41 µM
- IC50 (GAK (human)): > 10 µM
- IC50 (RPS6KA1 KD1 KD2 (human)): 8.74 µM
- IC50 (FYN (human)): > 10 µM
- IC50 (CSK (human)): > 10 µM
- IC50 (STK17B (human)): > 10 µM
- IC50 (BMP2K (human)): > 10 µM
- IC50 (FER (human)): > 10 µM
- IC50 (SIK3 (human)): > 10 µM
- IC50 (CSNK1G3 (human)): > 10 µM
- IC50 (MAP2K5 (human)): 9.71 µM
- IC50 (FGR (human)): > 10 µM
- IC50 (SYK (human)): > 10 µM
- IC50 (EIF2AK4 KD1 KD2 (human)): > 10 µM
- IC50 (SRC (human)): > 10 µM
- IC50 (RPS6KA3 KD1 KD2 (human)): > 10 µM
- IC50 (YES1 (human)): > 10 µM
- IC50 (ADCK3 (human)): > 10 µM
- IC50 (ULK3 (human)): > 10 µM
- IC50 (STK10 (human)): > 10 µM
- IC50 (PRKDC (human)): > 10 µM
- IC50 (PRKCD (human)): 1.19 µM
- IC50 (MARK3 (human)): 3 µM
SMILES: CN1CC[C@H](c2c(O)cc(O)c3c(=O)cc(-c4ccccc4Cl)oc23)[C@H](O)C1
- IC50 (NEK9 (human)): > 10 µM
